In ChEMBL document CHEMBL1133843, “3-Aryl-4-aryloyl-1-(1H-imidazol-5-yl)methylpyrrole, a novel class of farnesyltransferase inhibitors” (Bioorg Med Chem Lett, 2001) one finds IC50 data, which are given here for nine compounds.

This test deals with Protein farnesyltransferase (Homo sapiens, UniProt P49354+P49356). In words: Inhibition of [3H]FPP incorporation into Ha-ras protein by Farnesyltransferase. Type of test: functional.
By IC50 is commonly meant the point on the concentration scale where inhibition reaches its midpoint. With `Cn1cncc1Cn1cc(C(=O)c2ccc(Oc3ccccc3)cc2)c(-c2cccc3ccccc23)c1`, it took 4.6 nM to reach half-maximal inhibition (IC50).

`Cc1ccc(C(=O)c2cn(Cc3c[nH]cn3)cc2-c2c3ccccc3cc3ccccc23)cc1` showed a 50% inhibitory concentration (IC50) of 470 nM.

The compound `CSCC[C@H](NC(=O)c1ccc(CNCc2c[nH]cn2)cc1-c1ccccc1C)C(=O)O` had a concentration for half-maximal inhibition (IC50) of 1.4 nM.

For the compound `Cc1ccc(C(=O)c2cn(Cc3c[nH]cn3)cc2-c2ccc3ccccc3c2)cc1`, the half-maximal inhibitory concentration (IC50) was 2300 nM.

Turning to `O=C(c1ccc(Br)cc1)c1cn(Cc2c[nH]cn2)cc1-c1cccc2ccccc12`, inhibition was half-maximal at 32 nM (IC50).

Turning to `Cc1ccc(C(=O)c2cn(Cc3c[nH]cn3)cc2-c2cccc3ccccc23)cc1`, the concentration for half-maximal inhibition (IC50) is 65 nM.

Compound `O=C(c1ccc(Oc2ccccc2)cc1)c1cn(Cc2c[nH]cn2)cc1-c1cccc2ccccc12` gave a half-maximal inhibitory concentration (IC50) of 16 nM.

The compound `O=C(c1ccccc1Br)c1cn(Cc2c[nH]cn2)cc1-c1cccc2ccccc12` showed an IC50 of 88 nM.

In turn, `O=C(c1ccccc1)c1cn(Cc2c[nH]cn2)cc1-c1cccc2ccccc12` showed a half-inhibitory concentration (IC50) of 115 nM.
